Reference: ChEMBL document CHEMBL1136775, “Indole naphthyridinones as inhibitors of bacterial enoyl-ACP reductases FabI and FabK” (J Med Chem, 2003)
pIC50, pKi: −log10 of the molar value. Values after ≈ are worked out from the molar mass of the structure shown.

What was measured:
[1] = system: Moraxella catarrhalis; experiment: Antibacterial activity against Moraxella catarrhalis; format: functional
[2] = system: Enterococcus faecalis; experiment: Antibacterial activity against Enterococcus faecalis I; format: functional
[3] = system: Haemophilus influenzae; experiment: Antibacterial activity against Haemophilus influenzae Q1; format: functional
[4] = system: Staphylococcus aureus; experiment: Antibacterial activity against Staphylococcus aureus WCUH29; format: functional
[5] = Inhibitory activity against Enoyl-ACP reductase FabK in Streptococcus pneumoniae; format: functional
[6] = system: Streptococcus pneumoniae; experiment: Antibacterial activity against Streptococcus pneumoniae 1629; format: functional
[7] = system: Escherichia coli; experiment: Antibacterial activity against Escherichia coli 120AcrAB-; format: functional
[8] = biological target: T1, Enoyl-[acyl-carrier-protein] reductase [NADPH] FabI (Staphylococcus aureus, UniProt Q6GI75); experiment: Inhibitory activity against Enoyl-ACP reductase FabI in Staphylococcus aureus
T1 sequence (Q6GI75 whole entry): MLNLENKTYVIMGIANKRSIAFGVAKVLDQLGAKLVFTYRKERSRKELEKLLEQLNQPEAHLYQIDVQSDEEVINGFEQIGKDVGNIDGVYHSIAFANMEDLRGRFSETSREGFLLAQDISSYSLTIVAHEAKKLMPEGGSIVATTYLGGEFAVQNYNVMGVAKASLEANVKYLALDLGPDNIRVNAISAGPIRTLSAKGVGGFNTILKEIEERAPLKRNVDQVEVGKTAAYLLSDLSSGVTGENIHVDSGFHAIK

[9] = Inhibitory activity against Enoyl-ACP reductase FabI in Haemophilus influenzae
[10] = Inhibitory activity against Enoyl-ACP reductase FabI in Escherichia coli; format: functional
[11] = system: Staphylococcus aureus; experiment: Inhibitory activity against Staphylococcus aureus; format: functional
[12] = Inhibitory activity against human FASI enzyme; format: functional
[13] = system: Liposome; experiment: Inhibitory activity in liposome lysis assay; format: functional, subcellular, Homo sapiens
[14] = system: A549; experiment: Cytotoxicity against human A549 lung cells; format: functional, cell-based
[15] = system: Staphylococcus aureus; experiment: Antibacterial activity against in Staphylococcus aureus WCUH29; format: functional

Structure (SMILES) | MIC50 [1] [µg/mL] | MIC50 [2] [µg/mL] | MIC50 [3] [µg/mL] | MIC50 [4] [µg/mL] | pIC50 [5] | MIC50 [6] [µg/mL] | MIC50 [7] [µg/mL] | pIC50 [8] | pIC50 [9] | pIC50 [10] | pKi [11] | pIC50 [12] | pIC50 [13] | IC50 [14] [µg/mL] | MIC50 [15] [µg/mL]
Oc1cc(Cl)ccc1Oc1ccc(Cl)cc1Cl [TRICLOSAN] | < 0.06 | 16 (≈ 55.3 µM) | 0.5 (≈ 1.73 µM) | 0.03 (≈ 0.104 µM) | < 4.52 | 16 (≈ 55.3 µM) | 0.5 (≈ 1.73 µM) |  |  |  |  |  |  |  | 
CC(=O)Nc1ccc(/C=C/C(=O)N(C)Cc2cc3ccccc3n2C)cn1 |  |  | 32 (≈ 88.3 µM) | 0.12 (≈ 0.331 µM) |  |  |  | 6.52 | 5.89 |  |  |  |  |  | 
Cc1cc(/C=C/C(=O)N(C)Cc2cc3ccccc3n2C)cnc1N |  |  | > 64 | 0.25 (≈ 0.748 µM) |  |  |  | 6.04 | 5.21 |  |  |  |  |  | 
Cc1c(CN(C)C(=O)/C=C/c2cnc3c(c2)CCC(=O)N3)c2ccccc2n1C | < 0.06 | > 64 | > 64 | < 0.001 | < 4.52 | > 64 | 32 (≈ 82.4 µM) | 7.22 | 7.60 | 7.52 |  |  |  |  | 
CN(Cc1cc2ccccc2n1C)C(=O)/C=C/c1cnc2c(c1)CCCN2 |  |  | > 64 | 0.5 (≈ 1.39 µM) |  |  |  | 5.64 | 5.57 |  |  |  |  |  | 
CN(Cc1cc2ccccc2n1C)C(=O)/C=C/c1cnc2c(c1)CCC(=O)N2 |  |  | 32 (≈ 85.5 µM) | 0.03 (≈ 0.0801 µM) |  |  |  | 7.30 | 6.25 |  | 8.37 |  |  |  | 
Cc1[nH]c2ccccc2c1CN(C)C(=O)/C=C/c1cnc2c(c1)CCC(=O)N2 | < 0.06 | 16 (≈ 42.7 µM) | 1 (≈ 2.67 µM) | 0.016 (≈ 0.0427 µM) | 5.52 | 16 (≈ 42.7 µM) | 0.5 (≈ 1.34 µM) | 7.30 | 6.89 | > 7.22 |  |  |  |  | 
CN(Cc1cc2ccccc2n1C)C(=O)/C=C/c1ccc(N)nc1 |  |  | > 64 | 0.5 (≈ 1.56 µM) |  |  |  |  | 5.38 |  |  | < 4.00 | 3.20 | 512 (≈ 1600 µM) | 
CN(Cc1cn(C)c2ccccc12)C(=O)/C=C/c1cnc2c(c1)CCC(=O)N2 | < 0.06 | 16 (≈ 42.7 µM) | 16 (≈ 42.7 µM) | 0.06 (≈ 0.16 µM) | 5.30 | 16 (≈ 42.7 µM) | 8 (≈ 21.4 µM) | 6.89 | 6.41 | 7.15 |  |  |  |  | 
CC(=O)Nc1ncc(/C=C/C(=O)N(C)Cc2cc3ccccc3n2C)cc1C |  |  | > 64 |  |  |  |  | 6.03 | 5.12 |  |  |  |  |  | 2 (≈ 5.31 µM)
Cc1cccc2c(CN(C)C(=O)/C=C/c3cnc4c(c3)CCC(=O)N4)c(C)n(C)c12 | 2 (≈ 4.97 µM) | > 64 | > 64 | < 0.001 | < 4.52 | > 64 | > 64 | 7.70 | 7.15 | > 7.15 |  |  |  |  | 
